Results: publication PMC8512562, “Semisynthetic Derivatives of Selected Amaryllidaceae Alkaloids as a New Class of Antimycobacterial Agents” (Molecules, 2021)
≈ marks a conversion by molar mass, not a printed value. Where two headings read alike, the source gives them in different places.

Tests used:
[1] = system: Mycobacterium tuberculosis H37Ra; experiment: Antimycobacterial screening (microdilution broth, resazurin) against M. tuberculosis H37Ra; type: cell-based; settings: for MIC: Mycobacterium tuberculosis; for MIC values for standards, range, M. tuberculosis: range of MIC of the standards in the assay
[2] = system: Mycobacterium smegmatis DSM 43465 (ATCC 607); experiment: Antimycobacterial screening (microdilution broth, resazurin) against M. smegmatis; type: cell-based; settings: for MIC: Mycolicibacterium smegmatis, read-out: MIC M. smegmatis
[3] = system: Mycobacterium aurum DSM 43999 (ATCC 23366); experiment: Antimycobacterial screening (microdilution broth, resazurin) against M. aurum; type: cell-based; settings: for MIC: Mycolicibacterium aurum, read-out: MIC M. aurum; for MIC values for standards, range, M. aurum: range of MIC of the standards in the assay
HepG2 cells = experiment: cells; type: cell-based, Human; settings: for IC50: Homo sapiens, HepG2, MTT, 24 h incubation
[4] = H37RA, read-out: MIC Mtb H37Ra (µM)
[5] = M. tuberculosis H37Ra, resazurin added after 120 h, read-out: MIC Mtb H37Ra
[6] = H37RA, 120 h, read-out: MIC Mtb H37Ra

Row | SMILES | MIC [1, 4] [µM] | MIC [1, 5] [µg/mL] | MIC ([2]; 48 h) [µg/mL] | MIC ([3]; 72 h) [µg/mL] | SI (selectivity index) (HepG2 cells) | IC50 (HepG2 cells) [µM] | MIC [1, 6] [µg/mL] | MIC values for standards, range, M. tuberculosis [1] [µg/mL] | MIC ([2]; resazurin added after 48 h) [µg/mL] | MIC values for standards, range, M. smegmatis ([2]; range of MIC of the standards in the assay) [µg/mL] | MIC values for standards, range, M. aurum [3] [µg/mL] | MIC ([3]; resazurin added after 72 h) [µg/mL]
1 | COc1ccccc1C(=O)O[C@H]1C=C[C@@]23CCN(C)Cc4ccc(OC)c(c42)O[C@H]3C1 [1j, 6-O-(2-methoxybenzoyl)galanthamine] | 148 | 62.5 | 250 (≈ 593 µM) | 125 (≈ 297 µM) |  |  |  |  |  |  |  | 
2 | COc1ccc2c3c1O[C@H]1C[C@@H](OC(=O)c4ccco4)C=C[C@@]31CCN(C)C2 [1s, 6-O-(2-furoyl)galanthamine] | 150 | 62.5 | ≥ 500 | 250 (≈ 655 µM) |  |  |  |  |  |  |  | 
3 | COc1ccc2c3c1O[C@H]1C[C@@H](OC(=O)c4cccc(C)c4)C=C[C@@]31CCN(C)C2 [1c, 6-O-(3-methylbenzoyl)galanthamine] | 35.4 | 15.6 | 31.2 (≈ 77.1 µM) | 15.6 (≈ 38.5 µM) |  |  |  |  |  |  |  | 
4 | COc1ccc2c3c1O[C@H]1C[C@@H](OC(=O)c4cc(C)cc(C)c4)C=C[C@@]31CCN(C)C2 [1f, 6-O-(3,5-dimethylbenzoyl)galanthamine] | 17.1 | 7.81 | 7.81 (≈ 18.6 µM) | 7.81 (≈ 18.6 µM) | 1.03 | 17.6 ± 4.7 |  |  |  |  |  | 
5 | COc1ccc2c3c1O[C@H]1C[C@@H](OC(=O)c4c(C)cc(C)cc4C)C=C[C@@]31CCN(C)C2 [1g, 6-O-(2,4,6-trimethylbenzoyl)galanthamine] | 18 | 7.81 | 31.2 (≈ 72.1 µM) | 15.6 (≈ 36 µM) | 0.77 | 13.9 ± 0.8 |  |  |  |  |  | 
6 | COC1CC2C(=CC1O)C1CN2Cc2cc3c(cc21)OCO3 (stereo not drawn) [3-O-methylpancracine (3), 3-O-methylpancracine] | ≥ 1660 | ≥ 500 | ≥ 500 | ≥ 500 |  |  |  |  |  |  |  | 
7 | CCCCc1ccc(C(=O)OC2C=C3C4CN(Cc5cc6c(cc54)OCO6)C3CC2OC)cc1 (stereo not drawn) [3d, 2-O-(4-butylbenzoyl)-3-O-methylpancracine] | 7.9 | 3.91 | 7.81 (≈ 16.9 µM) | 7.81 (≈ 16.9 µM) | 2.59 | 20.5 ± 0.7 |  |  |  |  |  | 
8 | COc1cc2c(cc1OC)[C@@H](O)O[C@@H]1CC=C3CCN(C)[C@H]3[C@H]21 [lycorenine (9), lycorenine] | ≥ 394 | ≥ 125 | ≥ 125 | ≥ 125 |  |  |  |  |  |  |  | 
9 | COc1cc(OC)cc(C(=O)O[C@H]2C=C[C@@]34CCN(C)Cc5ccc(OC)c(c53)O[C@H]4C2)c1 [1n, 6-O-(3,5-dimethoxybenzoyl)galanthamine] | 34.6 | 15.6 | 31.2 (≈ 69.2 µM) | 31.2 (≈ 69.2 µM) |  |  |  |  |  |  |  | 
10 | COc1ccc2c3c1O[C@H]1C[C@@H](OC(=O)c4ccccc4C)C=C[C@@]31CCN(C)C2 [1b, 6-O-(2-methylbenzoyl)galanthamine] | 35.4 | 15.6 | 31.2 (≈ 77.1 µM) | 31.2 (≈ 77.1 µM) |  |  |  |  |  |  |  | 
11 | COc1cc2c(cc1OC)[C@@]13C=C[C@@H](O)C[C@@H]1N(CC3)C2 [maritidine (5), maritidine] | ≥ 1740 | ≥ 500 | ≥ 500 | ≥ 500 |  |  |  |  |  |  |  | 
12 | COC1C=CC23c4cc5c(cc4CN(CC2O)C3C1)OCO5 (stereo not drawn) [haemanthamine (2), haemanthamine] | ≥ 1660 | ≥ 500 | ≥ 500 | ≥ 500 |  |  |  |  |  |  |  | 
13 | NNC(=O)c1ccncc1 [isoniazid, reference compound] | 1.82 |  |  | 3.91 (≈ 28.5 µM) |  |  | 0.25 | 0.125 to 0.25 | 31.2 (≈ 228 µM) | 7.81 to 15.625 | 1.95 to 3.91 | 
14 | COc1cccc(C(=O)O[C@H]2C=C[C@@]34CCN(C)Cc5ccc(OC)c(c53)O[C@H]4C2)c1 [1k, 6-O-(3-methoxybenzoyl)galanthamine] | 68.3 | 31.2 | 62.5 (≈ 148 µM) | 31.2 (≈ 74.1 µM) |  |  |  |  |  |  |  | 
15 | COC1CC2C(=CC1OC(=O)c1c(C)cc(C)cc1C)C1CN2Cc2cc3c(cc21)OCO3 (stereo not drawn) [3b, 2-O-(2,4,6-trimethylbenzoyl)-3-O-methylpancracine] | 16.1 | 7.81 | 15.6 (≈ 34.9 µM) | 7.81 (≈ 17.5 µM) | 1.94 | 31.2 ± 5.4 |  |  |  |  |  | 
16 | CO[C@H]1/C=C/O[C@@]2(C)Oc3c(C)c(O)c4c(O)c(c(/C=N/N5CCN(C)CC5)c(O)c4c3C2=O)NC(=O)/C(C)=C\C=C\[C@H](C)[C@H](O)[C@@H](C)[C@@H](O)[C@@H](C)[C@H](OC(C)=O)[C@@H]1C [rifampicin, reference compound] | 0.0075 |  |  |  |  |  | 0.00625 | 0.0039 to 0.0078 | 6.25 (≈ 7.59 µM) |  | 0.39 to 0.78 | 0.39 (≈ 0.474 µM)
17 | COC1CC2C(=CC1OC(=O)c1ccc3ccccc3c1)C1CN2Cc2cc3c(cc21)OCO3 (stereo not drawn) [3g, 2-O-(2-naphthoyl)-3-O-methylpancracine] | 31.8 | 15.6 | 15.6 (≈ 34.3 µM) | 15.6 (≈ 34.3 µM) |  |  |  |  |  |  |  | 
